From ChEMBL document CHEMBL2021833, “Calcitonin gene-related peptide (CGRP) receptor antagonists: pyridine as a replacement for a core amide group” (Bioorg Med Chem Lett, 2012)
pIC50, pKi: −log10 of the molar value.

Columns and labels:
[1] = biological target: T1, Calcitonin gene-related peptide type 1 receptor (Homo sapiens, UniProt O60894+Q16602); assay: Antagonist activity at CGRP receptor in human SK-N-MC cells assessed as inhibition of CGRP-stimulated cAMP production; assay type: functional, cell-based
Liver microsomes [2] = assay: Metabolic stability in rat liver microsomes; assay type: ADME, Microsome
[3] = biological target: T1, Calcitonin gene-related peptide type 1 receptor; assay: Displacement of [I125]CGRP from CGRP receptor in human SK-N-MC cell membrane after 2 hrs by gamma or scintillation counting; assay type: cell membranes
Liver microsomes [4] = assay: Metabolic stability in human liver microsomes; assay type: ADME, Microsome
[5] = Permeability across human Caco2 cells; assay type: ADME, cell-based; conditions: Caco-2, read-out: permeability
[6] = Oral bioavailability in rat; assay type: ADME, organism-based; conditions: in vivo
Plasma = assay: Fraction unbound in po dosed rat plasma; assay type: ADME, organism-based; conditions: in vivo
[7] = biological target: T1, Calcitonin gene-related peptide type 1 receptor; assay: Antagonist activity at CGRP receptor in human SK-N-MC cells assessed as inhibition of CGRP-stimulated cAMP production in presence of plasma; assay type: functional, cell-based

T1 sequence (Q16602 whole entry, one chain of several): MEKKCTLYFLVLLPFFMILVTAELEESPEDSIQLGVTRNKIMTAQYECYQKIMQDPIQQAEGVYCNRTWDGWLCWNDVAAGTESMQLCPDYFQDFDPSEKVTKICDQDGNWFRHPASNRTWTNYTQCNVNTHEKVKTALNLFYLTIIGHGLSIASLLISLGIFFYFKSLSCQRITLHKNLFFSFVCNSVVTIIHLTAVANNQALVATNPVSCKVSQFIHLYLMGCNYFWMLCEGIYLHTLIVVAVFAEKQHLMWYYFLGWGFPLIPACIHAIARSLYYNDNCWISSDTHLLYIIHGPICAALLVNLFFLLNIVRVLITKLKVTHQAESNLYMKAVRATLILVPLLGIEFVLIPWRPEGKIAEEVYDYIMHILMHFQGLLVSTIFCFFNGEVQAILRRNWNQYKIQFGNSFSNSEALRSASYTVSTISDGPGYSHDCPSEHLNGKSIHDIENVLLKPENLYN

| Structure (SMILES) | pIC50 [1] | Stability (Liver microsomes [2]) | pIC50 [3] | Stability (Liver microsomes [4]) | other results |
| --- | --- | --- | --- | --- | --- |
| Cc1cc(CC(OC(=O)N2CCC(N3Cc4ccccc4NC3=O)CC2)c2cc(C(=O)O)ccn2)cc2cn[nH]c12 (stereo unspecified) | 7.55 | Unstable | 7.52 | Unstable | – |
| Cc1cc(CC(OC(=O)N2CCC(N3Cc4ccccc4NC3=O)CC2)c2ccccn2)cc2c(C=O)n[nH]c12 (stereo unspecified) | – | – | 8.89 | – | – |
| Cc1cc(CC(NC(=O)N2CCC(N3Cc4ccccc4NC3=O)CC2)c2cccc(Br)n2)cc2cn[nH]c12 (stereo unspecified) | 9.09 | – | 9.31 | – | – |
| CCc1ccnc(C(CC(=O)N2CCC(N3Cc4ccccc4NC3=O)CC2)Cc2cc(C)c3[nH]ncc3c2)c1 (stereo unspecified) | 7.89 | – | 8.00 | – | Papp [5]: 14 ×10⁻⁶ cm/s; bioavailability [6]: 2% |
| Cc1cc(CC(OC(=O)N2CCC(N3Cc4ccccc4NC3=O)CC2)c2cc(C#N)ccn2)cc2cn[nH]c12 (stereo unspecified) | – | Unstable | 8.52 | Unstable | – |
| Cc1cc(CC(NC(=O)N2CCC(N3Cc4ccccc4NC3=O)CC2)c2cccc(-c3ccccc3)n2)cc2cn[nH]c12 (stereo unspecified) | 7.85 | – | 7.92 | – | – |
| Cc1cc(CC(CC(=O)N2CCC(N3Cc4ccccc4NC3=O)CC2)c2ccccn2)cc2cn[nH]c12 (stereo unspecified) | 8.06 | – | 8.07 | – | Papp [5]: 12 ×10⁻⁶ cm/s; bioavailability [6]: 3% |
| Cc1cc(CC(OC(=O)N2CCC(N3Cc4ccccc4NC3=O)CC2)c2ccccn2)cc2cn[nH]c12 (stereo unspecified) | 8.72 | Unstable | 8.82 | Unstable | – |
| Cc1cc(CC(OC(=O)N2CCC(c3cc4ccccc4[nH]c3=O)CC2)c2ccccn2)cc2cn[nH]c12 (stereo unspecified) | – | Unstable | 7.92 | Unstable | – |
| Cc1cc(CC(OC(=O)N2CCC(N3Cc4ccccc4NC3=O)CC2)c2cc(-c3ccncc3)ccn2)cc2cn[nH]c12 (stereo unspecified) | – | Unstable | 9.57 | Unstable | – |
| Cc1cc(CC(OC(=O)N2CCC(N3Cc4ccccc4NC3=O)CC2)c2cc(CO)ccn2)cc2cn[nH]c12 (stereo unspecified) | 8.68 | Unstable | 8.70 | Unstable | – |
| Cc1cc(CC(NC(=O)N2CCC(N3Cc4ccccc4NC3=O)CC2)c2cc3ccccc3cn2)cc2cn[nH]c12 (stereo unspecified) | 9.00 | – | 9.09 | – | – |
| Cc1cc(CC(OC(=O)N2CCC(N3Cc4ccccc4NC3=O)CC2)c2cc(C(=O)N3CCCCC3)ccn2)cc2cn[nH]c12 (stereo unspecified) | 10.00 | Unstable | 9.55 | Unstable | – |
| Cc1cccc(C(Cc2cc(C)c3[nH]ncc3c2)NC(=O)N2CCC(N3Cc4ccccc4NC3=O)CC2)n1 (stereo unspecified) | 8.47 | – | 8.42 | – | – |
| Cc1cc(CC(OC(=O)N2CCC(N3Cc4ccccc4NC3=O)CC2)c2cc(C(=O)N(C)C)ccn2)cc2cn[nH]c12 (stereo unspecified) | – | Unstable | 9.48 | Unstable | – |
| Cc1cc(CC(CC(=O)N2CCC(N3Cc4ccccc4NC3=O)CC2)c2ccc(CO)cn2)cc2cn[nH]c12 (stereo unspecified) | 8.22 | – | 8.10 | – | – |
| Cc1cc(CC(CC(=O)N2CCC(N3Cc4cccc(F)c4NC3=O)CC2)c2ccccn2)cc2cn[nH]c12 (stereo unspecified) | 7.70 | – | 7.46 | – | Papp [5]: 21 ×10⁻⁶ cm/s; bioavailability [6]: 3% |
| Cc1ccc(C(CC(=O)N2CCC(N3Cc4ccccc4NC3=O)CC2)Cc2cc(C)c3[nH]ncc3c2)nc1 (stereo unspecified) | 7.74 | – | 7.92 | – | Papp [5]: 6.4 ×10⁻⁶ cm/s; bioavailability [6]: 1% |
| Cc1cc(CC(OC(=O)N2CCC(N3CCc4ccccc4NC3=O)CC2)c2cc(C(=O)N(C)C)cc(Cl)n2)cc2cn[nH]c12 (stereo unspecified) | – | – | 10.03 | – | Papp [5]: < 1.5 ×10⁻⁶ cm/s |
| Cc1cc(CC(OC(=O)N2CCC(c3cc4ccccc4[nH]c3=O)CC2)c2cc(CN3CCCCCC3)ccn2)cc2cn[nH]c12 (stereo unspecified) | 10.38 | Unstable | 10.02 | Unstable | Papp [5]: 2.8 ×10⁻⁶ cm/s |
| Cc1cc(CC(OC(=O)N2CCC(N3Cc4ccccc4NC3=O)CC2)c2ccccn2)cc2c(Br)n[nH]c12 (stereo unspecified) | – | – | 9.48 | – | – |
| Cc1cc(CC(CC(=O)N2CCC(c3cc4ccccc4[nH]c3=O)CC2)c2ccccn2)cc2cn[nH]c12 (stereo unspecified) | 7.52 | – | 7.62 | – | Papp [5]: 3.4 ×10⁻⁶ cm/s |
| Cc1cc(CC(OC(=O)N2CCC(N3Cc4ccccc4NC3=O)CC2)c2cc(C=O)ccn2)cc2cn[nH]c12 (stereo unspecified) | 9.55 | Unstable | 9.68 | Unstable | – |

| Structure (SMILES) | pIC50 [1] | Stability (Liver microsomes [2]) | pIC50 [3] | Stability (Liver microsomes [4]) | other results |
| --- | --- | --- | --- | --- | --- |
| Cc1cc(CC(OC(=O)N2CCC(c3cc4ccccc4[nH]c3=O)CC2)c2cc(C(=O)N(C)C)cc(Cl)n2)cc2cn[nH]c12 (stereo unspecified) | 9.47 | – | 9.55 | – | Cp(f) (Plasma): 6%; Papp [5]: 5.2 ×10⁻⁶ cm/s; bioavailability [6]: 4.5%; pKi [7]: 8.48 |
| Cc1cc(CC(OC(=O)N2CCC(N3Cc4ccccc4NC3=O)CC2)c2ccccn2)cc2c(CN3CCCCC3)n[nH]c12 (stereo unspecified) | – | – | 8.18 | – | – |
| Cc1cc(C[C@@H](NC(=O)N2CCC(N3Cc4cccc(F)c4NC3=O)CC2)C(=O)N2CCC(N3CCCCC3)CC2)cc2cn[nH]c12 | – | – | – | – | pKi [3]: 10.89 |
| Cc1cc(CC(OC(=O)N2CCC(N3Cc4ccccc4NC3=O)CC2)c2ccccn2)cc2c(Cl)n[nH]c12 (stereo unspecified) | – | – | 9.41 | – | – |
| Cc1cc(CC(OC(=O)N2CCC(c3cc4ccccc4[nH]c3=O)CC2)c2cc(CN3CCOCC3)ccn2)cc2cn[nH]c12 (stereo unspecified) | – | Unstable | 8.92 | Unstable | Papp [5]: 9.9 ×10⁻⁶ cm/s |
| Cc1cc(CC(OC(=O)N2CCC(c3cc4ccccc4[nH]c3=O)CC2)c2cc(CN3CCCC3)ccn2)cc2cn[nH]c12 (stereo unspecified) | – | Unstable | 9.62 | Unstable | Papp [5]: 4.9 ×10⁻⁶ cm/s |
| Cc1cc(CC(OC(=O)N2CCC(N3Cc4ccccc4NC3=O)CC2)c2ccccn2)cc2c(-c3ccccc3)n[nH]c12 (stereo unspecified) | – | – | 9.62 | – | – |
| Cc1cc(CC(OC(=O)N2CCC(N3Cc4ccccc4NC3=O)CC2)c2ccccn2)cc2c(CN3CCOCC3)n[nH]c12 (stereo unspecified) | – | – | 8.72 | – | – |
| Cc1cccnc1C(CC(=O)N1CCC(N2Cc3ccccc3NC2=O)CC1)Cc1cc(C)c2[nH]ncc2c1 (stereo unspecified) | 8.09 | – | 8.36 | – | – |
| Cc1cc(CC(NC(=O)N2CCC(N3Cc4ccccc4NC3=O)CC2)c2ccc3ccccc3n2)cc2cn[nH]c12 (stereo unspecified) | 8.85 | – | 8.70 | – | – |
| COC(=O)c1ccnc(C(Cc2cc(C)c3[nH]ncc3c2)OC(=O)N2CCC(N3Cc4ccccc4NC3=O)CC2)c1 (stereo unspecified) | – | Unstable | 8.36 | Unstable | – |
| Cc1cc(CC(CC(=O)N2CCC(N3Cc4ccccc4NC3=O)CC2)c2ccc(C=O)cn2)cc2cn[nH]c12 (stereo unspecified) | 9.03 | – | 8.96 | – | – |
| Cc1cc(C[C@@H](OC(=O)N2CCC(c3cc4ccccc4[nH]c3=O)CC2)c2cc(C(=O)N(C)C)cc(Cl)n2)cc2cn[nH]c12 | 10.19 | – | 10.11 | – | – |
| Cc1cc(CC(OC(=O)N2CCC(N3Cc4ccccc4NC3=O)CC2)c2ccc3ccccc3n2)cc2cn[nH]c12 (stereo unspecified) | 8.32 | Unstable | 8.85 | Unstable | – |
| Cc1cc(CC(NC(=O)N2CCC(N3Cc4ccccc4NC3=O)CC2)c2ccccn2)cc2cn[nH]c12 (stereo unspecified) | 8.39 | – | 8.51 | – | – |
| Cc1cc(CC(OC(=O)N2CCC(N3Cc4ccccc4NC3=O)CC2)c2cccc(Br)n2)cc2cn[nH]c12 (stereo unspecified) | 9.34 | Unstable | 9.42 | Unstable | – |
| Cc1cc(CC(OC(=O)N2CCC(N3Cc4ccccc4NC3=O)CC2)c2ccccn2)cc2c(CN3CCCC3)n[nH]c12 (stereo unspecified) | – | – | 8.17 | – | – |
| Cc1cc(CC(OC(=O)N2CCC(N3Cc4ccccc4NC3=O)CC2)c2cc(CN3CCCCC3)ccn2)cc2cn[nH]c12 (stereo unspecified) | 10.70 | Unstable | 10.00 | Unstable | – |
| Cc1cc(CC(CC(=O)N2CCC(N3Cc4ccccc4NC3=O)CC2)c2ccc(CN3CCCCC3)cn2)cc2cn[nH]c12 (stereo unspecified) | 8.89 | – | 8.74 | – | Papp [5]: < 1.5 ×10⁻⁶ cm/s |
| Cc1cc(CC(OC(=O)N2CCC(N3Cc4ccccc4NC3=O)CC2)c2cc3ccccc3cn2)cc2cn[nH]c12 (stereo unspecified) | 9.20 | Unstable | 9.34 | Unstable | – |
| Cc1cc(CC(OC(=O)N2CCC(n3c(=O)[nH]c4ncccc43)CC2)c2cc(C(=O)N(C)C)cc(Cl)n2)cc2cn[nH]c12 (stereo unspecified) | – | – | 10.15 | – | Cp(f) (Plasma): 21%; Papp [5]: 1.6 ×10⁻⁶ cm/s; pKi [7]: 9.74 |
| Cc1cc(CC(OC(=O)N2CCC(c3cc4ccccc4[nH]c3=O)CC2)c2cc(CN3CCCCC3)ccn2)cc2cn[nH]c12 (stereo unspecified) | 10.00 | Unstable | 9.80 | Unstable | Papp [5]: 8.5 ×10⁻⁶ cm/s |
